Consider 19 compounds from patent publication US9073897B2, “Cyclic sulfonium salt, process for production of same, and α-glucosidase inhibitor comprising same” (KINKI UNIVERSITY, priority 2011, dated 2015).

Broadly, the IC50 is the midpoint of a concentration-inhibition curve.

Type in all cases: biochemical
One assay addresses Maltase. Nature of the assay: α-glucosidase inhibition, rat small intestinal brush border membrane, maltose substrate. The settings on record: rat small intestine brush border membrane; maltose (74 mM); 0.1M maleate buffer (pH6.0); 37° C. for 30 minutes. The procedure: (§1) Brush border membrane follicles of rat's small intestine were prepared in accordance with the literature (Kessler, M. et al., Biochem. Biophys. Act, 1978, 506, 136), and a suspension of the follicles in 0.1M maleate buffer (pH6.0) was used as an intraintestinal α-glucosidase (maltase, sucrose and isomaltase).
A compound to be tested was dissolved in methylsulfoxide (DMSO) and the resulting solution was diluted with 0.1M maleate buffer to prepare a solution of the testing compound (DMSO concentration: 10%). A solution of a substrate (sucrose (74 mM), maltose (74 mM) or isomaltose (74 mM, […]) in the maleate buffer, a solution (25 μl) of the testing compound and the enzyme solution (25 μl) were mixed and the resulting solution was incubated at 37° C. for 30 minutes. Immediately after incubation, the resulting solution was heated by boiling water to terminate the reaction and mixed with water (150 μl). The concentration of glucose was measured by glucose oxidase method. The final concentration of DMSO in the testing solution was set to 2.5%, and no influence of DMSO on an inhibitory activity was detected. A 50% inhibitory concentration (IC50) was computed from the measured values.

The next assay deals with T1, Isomaltase (Rattus norvegicus, UniProt P23739).
T1 construct: Brush border membrane follicles of rat's small intestine were prepared; from tissue; host or cells: rat small intestine brush border membrane vesicles
T1 sequence (P23739 whole entry): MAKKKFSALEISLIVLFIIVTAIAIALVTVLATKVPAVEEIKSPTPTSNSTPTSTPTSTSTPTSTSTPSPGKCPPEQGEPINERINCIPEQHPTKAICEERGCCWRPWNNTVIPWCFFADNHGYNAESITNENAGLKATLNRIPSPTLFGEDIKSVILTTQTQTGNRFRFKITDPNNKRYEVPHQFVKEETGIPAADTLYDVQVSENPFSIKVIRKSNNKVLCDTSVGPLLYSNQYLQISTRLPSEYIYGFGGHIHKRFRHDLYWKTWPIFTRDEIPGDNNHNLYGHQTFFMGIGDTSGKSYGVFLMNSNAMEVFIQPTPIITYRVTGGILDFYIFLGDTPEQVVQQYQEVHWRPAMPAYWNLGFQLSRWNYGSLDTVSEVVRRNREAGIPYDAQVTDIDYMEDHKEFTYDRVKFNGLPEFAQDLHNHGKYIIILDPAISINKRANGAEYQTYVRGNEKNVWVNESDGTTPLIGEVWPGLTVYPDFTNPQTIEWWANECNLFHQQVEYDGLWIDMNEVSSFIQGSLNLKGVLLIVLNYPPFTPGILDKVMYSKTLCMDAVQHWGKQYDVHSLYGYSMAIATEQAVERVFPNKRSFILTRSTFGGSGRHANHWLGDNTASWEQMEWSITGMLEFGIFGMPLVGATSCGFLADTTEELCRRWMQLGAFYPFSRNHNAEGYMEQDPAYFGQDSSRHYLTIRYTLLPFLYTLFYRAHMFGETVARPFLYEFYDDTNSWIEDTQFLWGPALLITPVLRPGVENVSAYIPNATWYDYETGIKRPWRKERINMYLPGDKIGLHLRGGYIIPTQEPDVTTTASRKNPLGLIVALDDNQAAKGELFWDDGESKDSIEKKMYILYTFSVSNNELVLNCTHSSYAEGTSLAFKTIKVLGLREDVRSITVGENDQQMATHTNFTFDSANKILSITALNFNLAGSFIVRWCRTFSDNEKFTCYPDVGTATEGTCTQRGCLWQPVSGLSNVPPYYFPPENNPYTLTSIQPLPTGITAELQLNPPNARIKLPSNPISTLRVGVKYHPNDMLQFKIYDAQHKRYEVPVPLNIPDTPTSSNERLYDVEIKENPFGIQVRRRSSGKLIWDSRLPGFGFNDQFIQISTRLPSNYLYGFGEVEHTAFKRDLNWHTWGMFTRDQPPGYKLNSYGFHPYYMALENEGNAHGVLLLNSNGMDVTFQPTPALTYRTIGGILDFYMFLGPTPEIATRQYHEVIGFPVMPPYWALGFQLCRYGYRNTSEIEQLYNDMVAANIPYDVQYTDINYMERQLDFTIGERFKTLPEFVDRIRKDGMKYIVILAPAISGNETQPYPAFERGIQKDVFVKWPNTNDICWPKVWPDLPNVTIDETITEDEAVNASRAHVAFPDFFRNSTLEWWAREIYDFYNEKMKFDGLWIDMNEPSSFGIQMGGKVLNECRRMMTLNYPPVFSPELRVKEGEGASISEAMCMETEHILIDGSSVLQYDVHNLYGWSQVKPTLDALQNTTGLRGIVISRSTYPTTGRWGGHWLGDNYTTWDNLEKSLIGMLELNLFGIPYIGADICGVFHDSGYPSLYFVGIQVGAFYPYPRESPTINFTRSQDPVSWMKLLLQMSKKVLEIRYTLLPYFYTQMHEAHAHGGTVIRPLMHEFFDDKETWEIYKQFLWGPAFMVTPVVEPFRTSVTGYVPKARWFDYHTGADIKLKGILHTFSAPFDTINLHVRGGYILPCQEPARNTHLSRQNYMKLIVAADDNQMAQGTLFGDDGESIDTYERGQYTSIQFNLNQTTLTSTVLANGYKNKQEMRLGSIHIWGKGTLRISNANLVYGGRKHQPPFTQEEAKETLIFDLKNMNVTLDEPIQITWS
Description: α-glucosidase inhibition, rat small intestinal brush border membrane, isomaltose substrate. Conditions: rat small intestine brush border membrane; isomaltose (74 mM); 0.1M maleate buffer (pH6.0); 37° C. for 30 minutes. Here is the method: as §1
(§2) A compound to be tested was dissolved in methylsulfoxide (DMSO) and the resulting solution was diluted with 0.1M maleate buffer to prepare a solution of the testing compound (DMSO concentration: 10%). […] A 50% inhibitory concentration (IC50) was computed from the measured values.

A further assay deals with T2, Sucrase (Rattus norvegicus, UniProt P23739).
T2 construct: Brush border membrane follicles of rat's small intestine were prepared; from tissue; host or cells: rat small intestine brush border membrane vesicles
T2 sequence (P23739 whole entry): as above
Description: α-glucosidase inhibition, rat small intestinal brush border membrane, sucrose substrate. Conditions: rat small intestine brush border membrane; sucrose (74 mM); 0.1M maleate buffer (pH6.0); 37° C. for 30 minutes. Here is the method:
as §1, §2

Molecules are shown by their SMILES.

For `COC(CO)C(O)C[S+]1CC(O)C(O)C1CO` [Compound (Ia), 1,4-Dideoxy-1,4-[(R)-[4-deoxy-2-O-methyl-D-erythritol-4-yl]episulfoniumylidene]-D-arabitol chloride], the “α-glucosidase (IC50) Maltase” value at Maltase was found to be 5.3 mg/L. For the same compound, the IC50 was 1.45 µM against Isomaltase and 1.71 µM against Sucrase.

`CCOC(CO)C(O)C[S+]1CC(O)C(O)C1CO` [Compound (Ib), 1,4-Dideoxy-1,4-[(R)-[4-deoxy-2-O-ethyl-D-erythritol-4-yl]episulfoniumylidene]-D-arabitol chloride]: the IC50 is 0.953 µM on Isomaltase and 0.423 µM at Sucrase.

As for `CCCCCOC(CO)C(O)C[S+]1CC(O)C(O)C1CO` [Compound (Ic), 1,4-Dideoxy-1,4-[(R)-[4-deoxy-2-O-(1-pentyl)-D-erythritol-4-yl]episulfoniumylidene]-D-arabitol chloride], at Maltase, the “α-glucosidase (IC50) Maltase” value stood at 1.52 mg/L. Moreover, the figures for the IC50 against Isomaltase and against Sucrase were 1.44 µM and 1.54 µM, respectively.

Take `CCCCCCCOC(CO)C(O)C[S+]1CC(O)C(O)C1CO` [Compound (Id), 1,4-Dideoxy-1,4-[(R)-[4-deoxy-2-O-(1-heptyl)-D-erythritol-4-yl]episulfoniumylidene]-D-arabitol chloride]: the “α-glucosidase (IC50) Maltase” value at Maltase stood at 0.8 mg/L. For the same compound, the IC50 is 0.707 µM on Isomaltase and 0.679 µM at Sucrase.

As for `CCCCCCCCCCCCCOC(CO)C(O)C[S+]1CC(O)C(O)C1CO` [Compound (Ie), 1,4-Dideoxy-1,4-[(R)-[4-deoxy-2-O-(1-tridecyl)-D-erythritol-4-yl]episulfoniumylidene]-D-arabitol chloride], the “α-glucosidase (IC50) Maltase” value at Maltase was 1.04 mg/L. The IC50 is 2.17 µM against Isomaltase and 2.95 µM against Sucrase.

For `CC(C)(C)COC(CO)C(O)C[S+]1CC(O)C(O)C1CO` [Compound (If), 1,4-Dideoxy-1,4-[(R)-[4-deoxy-2-O-neopentyl-D-erythritol-4-yl]episulfoniumylidene]-D-arabitol chloride], the “α-glucosidase (IC50) Maltase” value on Maltase was found to be 0.3 mg/L. The IC50 against Isomaltase is 0.86 µM; on Sucrase it was 0.277 µM.

On to `F[B-](F)(F)F.OC[C@H](OCc1ccccc1)[C@H](O)C[S@+]1C[C@@H](O)[C@H](O)[C@H]1CO` [Compound (Ig) (X = BF4), 1,4-dideoxy-1,4-[(R)-[2-O-benzyl-4-deoxy-D-erythritol-4-yl]episulfoniumylidene]-D-arabitol tetrafluoroborate], for which the “α-glucosidase (IC50) Maltase” value on Maltase worked out at 0.44 mg/L. Moreover, the “α-glucosidase (IC50) Isomaltase” value at Isomaltase was 0.12 mg/L. Further, the “α-glucosidase (IC50) Sucrase” value on Sucrase is 0.32 mg/L.

With `OCC(OCc1ccccc1)C(O)C[S+]1CC(O)C(O)C1CO` [Compound (Ig) (X = Cl), 1,4-Dideoxy-1,4-[(R)-[2-O-benzyl-4-deoxy-D-erythritol-4-yl]episulfoniumylidene]-D-arabitol chloride], the “α-glucosidase (IC50) Maltase” value on Maltase amounted to 0.58 mg/L. Besides, the values for the IC50 against Isomaltase and against Sucrase were 0.579 µM and 1.59 µM, respectively.

Turning to `Cc1ccccc1COC(CO)C(O)C[S+]1CC(O)C(O)C1CO` [Compound (Ih), 1,4-Dideoxy-1,4-[(R)-[4-deoxy-2-O-(o-methylbenzyl)-D-erythritol-4-yl]episulfoniumylidene]-D-arabitol chloride], the “α-glucosidase (IC50) Maltase” value at Maltase came to 0.66 mg/L. In addition, the IC50 was 1.34 µM at Isomaltase and 1.14 µM against Sucrase.

In the case of `Cc1cccc(COC(CO)C(O)C[S+]2CC(O)C(O)C2CO)c1` [Compound (Ii), 1,4-Dideoxy-1,4-[(R)-[4-deoxy-2-O-(m-methylbenzyl)-D-erythritol-4-yl]episulfoniumylidene]-D-arabitol chloride], the “α-glucosidase (IC50) Maltase” value on Maltase was found to be 0.84 mg/L. Besides, the results for the IC50 on Isomaltase and against Sucrase were 0.974 µM and 3.62 µM, respectively.

As for `Cc1ccc(COC(CO)C(O)C[S+]2CC(O)C(O)C2CO)cc1` [Compound (Ij), 1,4-Dideoxy-1,4-[(R)-[4-deoxy-2-O-(p-methylbenzyl)-D-erythritol-4-yl]episulfoniumylidene]-D-arabitol chloride], the “α-glucosidase (IC50) Maltase” value at Maltase was found to be 0.86 mg/L. The results for the IC50 on Isomaltase and against Sucrase were 1.89 µM and 3.06 µM, respectively.

On to `OCC(OCc1ccccc1Cl)C(O)C[S+]1CC(O)C(O)C1CO` [Compound (Ik), 1,4-Dideoxy-1,4-[(R)-[2-O-(o-chlorobenzyl)-4-deoxy-D-erythritol-4-yl]episulfoniumylidene]-D-arabitol chloride], for which the “α-glucosidase (IC50) Maltase” value on Maltase came out at 0.31 mg/L. Moreover, the results for the IC50 at Isomaltase and on Sucrase were 0.684 µM and 0.237 µM, respectively.

On to `OCC(OCc1cccc(Cl)c1)C(O)C[S+]1CC(O)C(O)C1CO` [Compound (Il), 1,4-Dideoxy-1,4-[(R)-[2-O-(m-chlorobenzyl)-4-deoxy-D-erythritol-4-yl]episulfoniumylidene]-D-arabitol chloride], for which, on Maltase, the “α-glucosidase (IC50) Maltase” value came out at 0.53 mg/L. Further, the values for the IC50 against Isomaltase and at Sucrase were 0.816 µM and 2.11 µM, respectively.

Take `OCC(OCc1ccc(Cl)cc1)C(O)C[S+]1CC(O)C(O)C1CO` [Compound (Im), 1,4-Dideoxy-1,4-[(R)-[2-O-(p-chlorobenzyl)-4-deoxy-D-erythritol-4-yl]episulfoniumylidene]-D-arabitol chloride]: the “α-glucosidase (IC50) Maltase” value at Maltase amounted to 0.89 mg/L. For the same compound, the IC50 on Isomaltase is 1.79 µM; against Sucrase, 1.9 µM.

`OCC(OCc1ccc(C(F)(F)F)cc1)C(O)C[S+]1CC(O)C(O)C1CO` [Compound (Is), 1,4-Dideoxy-1,4-[(R)-[4-deoxy-2-O-(p-trifluoromethylbenzyl)-D-erythritol-4-yl]episulfoniumylidene]-D-arabitol chloride]: the “α-glucosidase (IC50) Maltase” value at Maltase is 0.98 mg/L. For the same compound, the figures for the IC50 against Isomaltase and on Sucrase were 0.919 µM and 1.35 µM, respectively.

As to `O=[N+]([O-])c1ccc(COC(CO)C(O)C[S+]2CC(O)C(O)C2CO)cc1` [Compound (Iv), 1,4-Dideoxy-1,4-[(R)[4-deoxy-2-O-(p-nitrobenzyl)-D-erythritol-4-yl]episulfoniumylidene]-D-arabitol chloride], the “α-glucosidase (IC50) Maltase” value at Maltase is 0.68 mg/L. The IC50 was 0.589 µM at Isomaltase and 0.973 µM at Sucrase.

As for `OCc1ccc(COC(CO)C(O)C[S+]2CC(O)C(O)C2CO)cc1` [Compound (Iw), 1,4-Dideoxy-1,4-[(R)-[4-deoxy-2-O-(p-hydroxymethyl)benzyl)-D-erythritol-4-yl]episulfoniumylidene]-D-arabitol chloride], at Maltase, the “α-glucosidase (IC50) Maltase” value is 1 mg/L. For the same compound, the IC50 at Isomaltase was 0.799 µM; against Sucrase, 2.13 µM.

As to `O=S(=O)([O-])OC(CO)C(O)C[S+]1CC(O)C(O)C1CO` (stereo not shown) [Salacinol, salacinol, reference compound], the “α-glucosidase (IC50) Maltase” value at Maltase was 5.2 mg/L. In addition, the IC50 was 3.89 µM against Isomaltase and 4.79 µM on Sucrase.

For the compound `OCC(CO)N[C@H]1C[C@](O)(CO)[C@@H](O)[C@H](O)[C@H]1O` [voglibose, reference compound], the IC50 on Isomaltase is 7.86 µM; against Sucrase, 0.823 µM.
